What is called IC50 is the point on the concentration scale where inhibition reaches its midpoint. The term LD50 denotes the dose expected to kill half of the subjects tested.

In data set [1] the test system is mouse leukemia cells. As to the kind of experiment: Cytotoxicity test. Conditions: for Cytotoxicity, IC50: 48 hours, 37° C., RPMI1640 with 10% horse serum, trypan blue. As for the experimental part: 5×10^4 cells/ml of mouse leukemia cells were inoculated in a RPMI1640 culture medium containing 10% horse serum, and the compound of the present invention was added to this such that the final concentration became 0.001 to 10.0 μg/ml. Cultivation was conducted in a carbon dioxide gas incubator (air containing 5% carbon dioxide gas) at 37° C. for 48 hours.

Data set [2] can be described thus: Sustained release test (adriamycin liberated in phosphoric acid buffer physiological saline). Conditions: 1 mg in 0.0067 M phosphoric acid buffer physiological saline, initial pH=7.36-7.37, 37° C., HPLC. Type of data set: physicochemical. As for the experimental part:
One milligram of each of the adriamycin derivatives obtained in Examples 1, 2, 3, 4, 5 and 6 to be described later was dissolved in 0.0067 M phosphoric acid buffer physiological saline solution made by Bioproducts, Inc. (initial pH=7.36-7.37), and the solution was kept at 37° C. The amount of adriamycin liberated in the solution was analyzed by HPLC [column=YMC Pack A-312 S-5 120A ODS; mobile phase=0.05M ammonium formate buffer (pH=4.0):- acetonitrile=7:4, flow rate=1 ml/min; measuring wavelength=254 nm; retention time of adriamycin under the present conditions=3.8 minutes].
Consequently, a 50 % released time of adriamycin from the adriamycin derivatives is as follows, and sustained release was confirmed.

The conditions of data set [3]: intravenous injection in mice; Collection of Medicaments in Japan, 1989; cited from earlier work.
Data set [4] deals with L1210 leukemia. The experiment in a line: Test of anti-cancer activity to L1210 leukemia mice. Type of data set: in vivo, CDF1 mice. Conditions: i.p., 10 days; for Survived mice/test mice: observed 60 days. As to the method:
1×10^5 L1210 leukemia cells were inoculated into CDF1 mice intraperitoneally, and 24 hours later, the aqueous solution of the compound of this invention was intraperitoneally administered successively over 10 days. Test groups, each consisting of 6 mice, were fed and observed for 60 days, and percent prolongation of life (T/C; %) was found.

Data set [5] is described as follows: Toxicity test LD50. Type of data set: in vivo. The following applies: mice, intravenously administered once. The text has this:
LD50 given when the adriamycin derivatives of this invention were intravenously administered once in mice is as follows.

The mark [6] stands for this setting: 9.54 mg/kg/day (2.5 as adriamycin).
Where [7] appears, read: 13.36 mg/kg/day (3.5 as adriamycin).
The mark [8] stands for this setting: 19.08 mg/kg/day (5.0 as adriamycin).
The mark [9] stands for this setting: 26.72 mg/kg/day (7.0 as adriamycin).
[10] abbreviates: 38.17 mg/kg/day (10.0 as adriamycin).
[11] abbreviates: 9.77 mg/kg/day (2.5 as adriamycin).
Where [12] appears, read: 19.53 mg/kg/day (5.0 as adriamycin).
Where [13] appears, read: 39.06 mg/kg/day (10.0 as adriamycin).
[14] abbreviates: 78.13 mg/kg/day (20.0 as adriamycin).
Setting [15] is: 156.25 mg/kg/day (40.0 as adriamycin).

Values after ≈ are worked out from the molar mass of the structure shown. Where a name gives a salt, the structure may show the parent alone. Read-outs that look alike come from different tables or passages of the source. Bounds are passed on as bounds.

For the compound `COc1cccc2c1C(=O)c1c(O)c3c(c(O)c1C2=O)C[C@@](O)(C(=O)COC(=O)c1ccccc1C(=O)OC[C@H]1O[C@@H]2O[C@H]4[C@H](O)[C@@H](O)[C@@H](O[C@H]5[C@H](O)[C@@H](O)[C@@H](O[C@H]6[C@H](O)[C@@H](O)[C@@H](O[C@H]7[C@H](O)[C@@H](O)[C@@H](O[C@H]8[C@H](O)[C@@H](O)[C@@H](O[C@H]9[C@H](O)[C@@H](O)[C@@H](O[C@H]%10[C@H](O)[C@@H](O)[C@@H](O[C@H]1[C@H](O)[C@H]2O)O[C@@H]%10CO)O[C@@H]9CO)O[C@@H]8CO)O[C@@H]7CO)O[C@@H]6CO)O[C@@H]5CO)O[C@@H]4CO)C[C@@H]3O[C@H]1C[C@H](N)[C@H](O)[C@H](C)O1` [Example 6-APC, adriamycin (14-position)-phthalic acid-(6-position) γ-cyclodextrin conjugate], the “Cytotoxicity, IC50” value in data set [1] turned out to be 0.49 µg/mL. The “50 % released time of adriamycin from the adriamycin derivatives” value (from here on “50 % released time of adriamycin”) in data set [2] is “about 45 hours”.
In the case of `COc1cccc2c1C(=O)c1c(O)c3c(c(O)c1C2=O)C[C@@](O)(C(=O)CO)C[C@@H]3O[C@H]1C[C@H](N)[C@H](O)[C@H](C)O1` [Adriamycin, adriamycin], in data set [1] (Mus musculus, 48 h, read-out: Cytotoxicity, IC50), the half-maximal inhibitory concentration (IC50) worked out at 0.058 µg/mL (≈ 0.107 µM). The 50% lethal dose (LD50) in data set [3] is given as 9.8 mg/kg.
Consider `COc1cccc2c1C(=O)c1c(O)c3c(c(O)c1C2=O)C[C@@](O)(C(=O)CO)C[C@@H]3O[C@H]1C[C@H](N)[C@H](O)[C@H](C)O1` [Adriamycin hydrochloride, reference compound], for which the “Anti-cancer activity, T/C (%)” value in data set [4] (0.31 mg/kg/day) is on record as 170%; in data set [4] (0.63 mg/kg/day) it was 218%; in data set [4] (1.25 mg/kg/day), 255%; in data set [4] (2.50 mg/kg/day), 177%; in data set [4] (5.00 mg/kg/day), 132%. In addition, the Survived mice/test mice in data set [4] (0.31 mg/kg/day), in data set [4] (0.63 mg/kg/day), in data set [4] (1.25 mg/kg/day), in data set [4] (2.50 mg/kg/day) and in data set [4] (5.00 mg/kg/day) was 0/6 throughout.
“adriamycin-succinic acid-γ-cyclodextrin conjugate [ASC]”: the “Anti-cancer activity, T/C (%)” value in data set [4] (setting [6]) was 207%; in data set [4] (setting [7]) it was 545%; in data set [4] (setting [8]), 552%; in data set [4] (setting [9]), 193%; in data set [4] (setting [10]) it was 159%. For the same compound, the Survived mice/test mice in data set [4] (setting [6]) was 0/6; in data set [4] (setting [7]), 3/6; in data set [4] (setting [8]), 3/6; in data set [4] (setting [9]), 0/6; in data set [4] (setting [10]) it was 0/6.
As to `COc1cccc2c1C(=O)c1c(O)c3c(c(O)c1C2=O)C[C@@](O)(C(=O)COC(=O)CCC(=O)OC[C@H]1O[C@@H]2O[C@H]4[C@H](O)[C@@H](O)[C@@H](O[C@H]5[C@H](O)[C@@H](O)[C@@H](O[C@H]6[C@H](O)[C@@H](O)[C@@H](O[C@H]7[C@H](O)[C@@H](O)[C@@H](O[C@H]8[C@H](O)[C@@H](O)[C@@H](O[C@H]9[C@H](O)[C@@H](O)[C@@H](O[C@H]%10[C@H](O)[C@@H](O)[C@@H](O[C@H]1[C@H](O)[C@H]2O)O[C@@H]%10CO)O[C@@H]9CO)O[C@@H]8CO)O[C@@H]7CO)O[C@@H]6CO)O[C@@H]5CO)O[C@@H]4CO)C[C@@H]3O[C@H]1C[C@H](N)[C@H](O)[C@H](C)O1` [Example 6-ASC, adriamycin (14-position)-succinic acid (6-position) γ-cyclodextrin conjugate], the “Cytotoxicity, IC50” value in data set [1] amounted to 0.21 µg/mL. Moreover, the “50 % released time of adriamycin” value in data set [2] is reported as “about 3 hours”.
On to “adriamycin-phthalic acid-γ-cyclodextrin conjugate [APC]”, for which the “Anti-cancer activity, T/C (%)” value in data set [4] (setting [11]) is 164%; in data set [4] (setting [12]), 234%; in data set [4] (setting [13]), 468%; in data set [4] (setting [14]), 475%; in data set [4] (setting [15]), 143%. Also, the Survived mice/test mice in data set [4] (setting [11]) is listed as 0/6; in data set [4] (setting [12]), 0/6; in data set [4] (setting [13]), 2/6; in data set [4] (setting [14]) it was 0/6; in data set [4] (setting [15]) it was 0/6. In addition, the LD50 in data set [5] (as derivative) is given as 555 mg/kg. Moreover, the LD50 as adriamycin in data set [5] (calculated as adriamycin) is given as 147 mg/kg as adriamycin. Besides, the “Cytotoxicity, IC50” value in data set [1] came out at 0.32 µg/mL. Further, the “50 % released time of adriamycin” value in data set [2] was “about 20 hours”.
Take `COc1cccc2c1C(=O)c1c(O)c3c(c(O)c1C2=O)C[C@@](O)(C(=O)COC(=O)c1cc2ccccc2cc1C(=O)OC[C@H]1O[C@@H]2O[C@H]4[C@H](O)[C@@H](O)[C@@H](O[C@H]5[C@H](O)[C@@H](O)[C@@H](O[C@H]6[C@H](O)[C@@H](O)[C@@H](O[C@H]7[C@H](O)[C@@H](O)[C@@H](O[C@H]8[C@H](O)[C@@H](O)[C@@H](O[C@H]9[C@H](O)[C@@H](O)[C@@H](O[C@H]%10[C@H](O)[C@@H](O)[C@@H](O[C@H]1[C@H](O)[C@H]2O)O[C@@H]%10CO)O[C@@H]9CO)O[C@@H]8CO)O[C@@H]7CO)O[C@@H]6CO)O[C@@H]5CO)O[C@@H]4CO)C[C@@H]3O[C@H]1C[C@H](N)[C@H](O)[C@H](C)O1` [Example 6-ANC, adriamycin (14-position)-naphthalenedicarboxylic acid-(6-position) γ-cyclodextrin conjugate]: the “Cytotoxicity, IC50” value in data set [1] came out at 0.79 µg/mL. Besides, the “50 % released time of adriamycin” value in data set [2] was “about 65 hours”.
The like results for `COc1cccc2c1C(=O)c1c(O)c3c(c(O)c1C2=O)C[C@@](O)(C(=O)COC(=O)C1CCCCC1C(=O)OC[C@H]1O[C@@H]2O[C@H]4[C@H](O)[C@@H](O)[C@@H](O[C@H]5[C@H](O)[C@@H](O)[C@@H](O[C@H]6[C@H](O)[C@@H](O)[C@@H](O[C@H]7[C@H](O)[C@@H](O)[C@@H](O[C@H]8[C@H](O)[C@@H](O)[C@@H](O[C@H]9[C@H](O)[C@@H](O)[C@@H](O[C@H]%10[C@H](O)[C@@H](O)[C@@H](O[C@H]1[C@H](O)[C@H]2O)O[C@@H]%10CO)O[C@@H]9CO)O[C@@H]8CO)O[C@@H]7CO)O[C@@H]6CO)O[C@@H]5CO)O[C@@H]4CO)C[C@@H]3O[C@H]1C[C@H](N)[C@H](O)[C@H](C)O1` (some centres unmarked) [Example 6-ACC, adriamycin (14-position)-ciscyclohexanedicarboxylic acid-(6-position) γ-cyclodextrin conjugate] were, in that order, 2.07 µg/mL and above 70 h.

The record behind these values is US5183883A, “Conjugate of adriamycin and cyclodextrin” (Mercian Corporation, priority 1990, dated 1993).
